Values after ≈ are worked out from the molar mass of the structure shown.
Test: In vitro inhibitory concentration against Cdc25A protein phosphatase

Row | SMILES | IC50
1 | CNC1=CC(=O)c2c(OC)cc(C[C@@H]3CCOC(C)(C)O3)cc2C1=O | > 10 µg/mL
2 | CCCCC(O)c1c(C/C=C/CO)cc2c(c1O)C(=O)C=C(OC)C2=O (stereo unspecified) | 1.51 µg/mL (≈ 4.19 µM)
3 | CNC1=CC(=O)c2c(cc(C/C=C/CO)c(C(O)c3ccccc3)c2OC)C1=O (stereo unspecified) | > 10 µg/mL
4 | COC1=CC(=O)c2c(OC)cc(C[C@@H]3CCOC(C)(C)O3)cc2C1=O | 0.4 µg/mL (≈ 1.15 µM)
5 | CCC(O)c1c(C/C=C/CO)cc2c(c1OC)C(=O)C=C(OC)C2=O (stereo unspecified) | 1.86 µg/mL (≈ 5.37 µM)
6 | COC1=CC(=O)c2c(OC)cc(OC)cc2C1=O | 0.4 µg/mL (≈ 1.61 µM)
7 | CNC1=CC(=O)c2c(OC)cc(COC)cc2C1=O | > 10 µg/mL
8 | CCCCC(O)c1c(C/C=C/CO)cc2c(c1O)C(O)=C/C(=N\C)C2=O (stereo unspecified) | > 10 µg/mL
9 | CCC(O)c1c(C/C=C/CO)cc2c(c1OC)C(=O)C=C(NC)C2=O (stereo unspecified) | > 10 µg/mL
10 | CCCC[C@H]1O[C@@H](CC(=O)O)Cc2cc3c(c(O)c21)C(=O)C=C(NC)C3=O (racemic) | >= 10 ug ml-1

Second part, the compound after the results:

Row | IC50 | SMILES
11 | > 10 µg/mL | CCCCC(O)c1c(C/C=C/CO)cc2c(OC)c(OC)cc(OCc3ccccc3)c2c1OC (stereo unspecified)
12 | > 10 µg/mL | COc1cc(OCc2ccccc2)c2c(OC)cc(C[C@@H]3CCOC(C)(C)O3)cc2c1OC
13 | 1.77 µg/mL (≈ 4.73 µM) | CCCCC(O)c1c(C/C=C/CO)cc2c(c1OC)C(=O)C=C(OC)C2=O (stereo unspecified)
14 | 1.6 µg/mL (≈ 4.12 µM) | CCCCCC(O)c1c(C/C=C/CO)cc2c(c1OC)C(=O)C=C(OC)C2=O (stereo unspecified)
15 | 2.74 µg/mL (≈ 6.95 µM) | COC1=CC(=O)c2c(cc(C/C=C/CO)c(C(O)c3ccccc3)c2OC)C1=O (stereo unspecified)
16 | > 10 µg/mL | CCCCCC(O)c1c(C/C=C/CO)cc2c(c1OC)C(=O)C=C(NC)C2=O (stereo unspecified)
